Experimental data reported in patent publication US7649091B2, “Orally bioavailable low molecular weight metalloporphyrins as antioxidants” (Eukarion, Inc., priority 2003, dated 2010).
“And” between values parts separate entries of the source, which are not always exact repeats. Equal values may be shown once.

Experiments:
Format in all cases: in vivo, Balb/c male mice
[1] = Animal bioavailability of Compound 3, i.v. experiment: plasma and organ levels by LC/MS; conditions: IV, 238 min
Procedure: (§1) Twenty 8-week-old Balb/c male mice (Charles River, US) were used in all experiments. Mice were kept at a temperature of 22±3° C. and provided with a standard diet and water.
(§2) For i.v. experiment mice received standard food before and during the experiment. For oral route, mice received no food 3 h before the start of the experiment and no food after.
0.1 mL of a solution of Compound 3, 3 mg/mL in mannitol 5% (previously sterilized by filtration onto Acrodisc® syringe filter 0.2 μm HT Tuffryn® membrane) was injected in the tail vein. Two animals were killed 0.5 h after injection, two animals were killed 1 h after injection, two animals were killed 2 h after injection and two animals were killed 4 h after injection.
(§3) At the time of sacrifice, mice were bled by heart puncture. Then organs were removed for biochemical studies (brain, kidney, liver and lung).
Red blood cells and plasma were separated by addition of heparine (15 μL) and centrifugation (2000 rpm, 5 min). […] The liquid layer (50 μL) was then analysed by LC/MS (MRM procedure, Column PARTISIL 5 ODS-3 RAC II, Cat. no. 4222-225).
Organs were washed with 5 ml of distillated water and dried with blotting paper. Volumes of organs were measured by addition of the organ into one half full of water graduated test tube. […]

[2] = Animal bioavailability of Compound 3, oral route experiment (gavage): plasma and organ levels by LC/MS; conditions: for Brain: Oral
Procedure: as §1, §2
Animals received by gavage a 0.1 mL of a solution of Compound 3 3 mg/mL in mannitol 5% (previously sterilized by filtration onto Acrodisc® syringe filter […] HT Tuffryn® membrane). Two animals were killed 0.5 h after gavage, two animals were killed 1 h after gavage, two animals were killed 2 h after gavage and two animals were killed 4 h after gavage.
as §3
Red blood cells and plasma were separated by addition of heparine (15 μL) and centrifugation (2000 rpm, 5 min). Then 1.5 mL of HPLC mobil phase (Ammonium acetate 3 mM, acetonitrile, methanol, formic acid; 1/1/1/0.07 (v/v) at pH=3) were added to 40 μL of plasma and the mixture was centrifugated (2000 rpm, 5 min). The liquid layer (50 μL) was then analysed by LC/MS (MRM procedure, Column PARTISIL 5 ODS-3 RAC II, Cat. no. 4222-225).
Organs were washed with 5 ml of distillated water and dried with blotting paper. Volumes of organs were measured by addition of the organ into one half full of water graduated test tube. Organs were dried a second time with blotting paper and then weighed. A volume of mobil phase (in mL) corresponding to 6 times of the organ weigh (in g) was added to the organ. The mixture was crushed mechanically (with JANKE & KUNKEL, IKA Labortechnik ULTRA-TURRAX T25; 24000 rpm, 1 min), sonicated 30 min and centrifugated 20 min (2000 rpm). To this mixture, 1 mL of the liquid layer was removed and filtrated with Acrodisc CRPTFE® syringe Filter in order to obtain a clear solution suitable for LC/MS analysis.

[3] = Animal bioavailability of Compound 3, i.v. experiment: plasma and organ levels by LC/MS; conditions: IV, 82 min
[4] = 0.1 mL of 3 mg/mL in mannitol 5%, individual mouse
[5] = third line = mean of the two mice

{[{(Porphine-5,15-diyl)bis[cyclopropyl-diyl]}](2-)-N^21,N^22,N^23,N^24}manganese(III)acetate [Compound 3]
Brain [1, 4]: 89 ng/g and 91 ng/g
Brain [1, 5]: 90 ng/g
Brain, oral level as percent of IV level ([2]; Oral 70 min mean relative to IV 82 min mean (in parentheses)): (112%)
Brain, oral level as percent of IV level ([2]; Oral 234 min mean relative to IV 238 min mean (in parentheses)): (10%)
Brain ([2]; 70 min, 0.1 mL of 3 mg/mL in mannitol 5% by gavage, individual mouse): 88 ng/g and 24 ng/g
Brain ([2]; 70 min, third line = mean of the two mice): 56 ng/g
Brain ([2]; 234 min, 0.1 mL of 3 mg/mL in mannitol 5% by gavage, individual mouse): 8 ng/g and 9 ng/g
Brain ([2]; 234 min, third line = mean of the two mice): 9 ng/g
Lung ([2]; mouse, in vivo, po): 67 ng/g
Brain [3, 4]: 25 ng/g and 75 ng/g
Brain [3, 5]: 50 ng/g
